Source: patent US12501899B2, “Mite infestation treatment” (priority 2019, dated 2025)
Where a name gives a salt, the structure may show the parent alone. Read-outs that look alike come from different tables or passages of the source.

Legend:
Ixodes ricinus = assay: Oral acaricidal test on ticks in membrane feeding wells with treated blood; format: in vivo; conditions: for mortality at 1 ppm / mortality at 10 ppm / mortality at 100 ppm: Ixodes ricinus, po
Protocol: A laboratory study was conducted to determine the oral acaricidal properties of three compounds according to the invention (SN0305, SN0306 and SN0307) against Ixodes ricinus. Each compound was tested at 1, 10 and 100 ppm, and compared to a negative control corresponding to solvent alone (0.1% DMSO). Amitraz at 100 ppm was used as a positive control.
The Ixodes ricinus ticks (nymphs and adults) were placed for 24 hours on a membrane in feeding wells containing blood mixed with the tested compounds. Tick mortality (number of dead, moribund, or unaffected ticks in each well), attachment to the membrane (number of ticks attached/detached in each well), and the behavior (presence or absence of twitches) were examined 1, 3, 6, 12, 24, 48, 72, and 96 hours after the onset of tick exposure to the compounds.
Ticks (Ixodes ricinus) were collected. Collected adult females were kept separate from the nymphs and both were placed in sterile tubes in a humidity chamber to provide ˜80% humidity and 17° C. Only healthy ticks (females/nymphs) were chosen for the experiment.
Batches of 12 adults or nymphs were inserted into the feeding wells. After about 24 hours, their attachment was examined with a brush.
The efficiency of three compounds (SN0305, SN0306 and SN0307), each tested at three concentrations (1, 10, 100 ppm), was compared to the solvent control (0.1% DMSO, Sigma-Aldrich D-5879; Lot 101K0028) and to the positive control (Amitraze at 100 ppm).
Silicone-coated membranes with a thickness comprised between 110 and 140 μm were used for the construction of the feeding units.
Feeding units (sterilized acrylic glass tubes) were placed in feeding wells made of sterilized six-well plates.
3.1 ml of sterile 10^−3 M ATP-enriched blood was applied to each feeding well. Feeding wells were then inserted into a heated water bath (FIG. 12) and maintained at 37° C.±2° C.
Stock solutions of 100,000 ppm were prepared and tenth dilutions were carried out in 0.1% DMSO to reach the desired concentrations. After tick attachment (24 hours after placing the ticks in the feeding wells), 3.1 μl of the solutions were added to each feeding well containing 3.1 ml of blood. Blood was changed after 12 hours with fresh supplementation of the compounds to be tested. The ticks were exposed to the product for a total of 24 hours, after which the blood was again changed to fresh, untreated blood.
Tick mortality (number of dead, moribund or unaffected ticks in each well), attachment (number of attached/detached ticks in each well) and behavior (presence, absence and intensity of convulsions) were examined 1, 3, 6, 12, 24, 48, 72, and 96 hours after the start of tick exposure to the compound.

Varroa destructor = conditions: 0.1 μg/μL in ethanol
Protocol: About 300 bees (Apis mellifera) infected with Varroa destructor were taken from a hive superinfected with Varroa destructor. The bees were then placed in a device allowing to detach Varroa mites attached to the bees (device described in Community model n° 003419415-0001) filled with icing sugar. The device was stirred for 2 minutes to sample the Varroa mites attached to the bees. The icing sugar allows to interfere between the bee and the Varroa mite that was attached thereto. Varroa mites were harvested with icing sugar because they pass through the holes in the device, unlike bees. The Varroa mites were then separated from the icing sugar.
The Varroa mites thus recovered were dispatched in boxes (10 Varroa mites per box).
The bees were then dispatched in the boxes (10 per box).
The bees were then put to sleep for a few minutes using CO2 (flow of 3 liters for 20 seconds) in order to deposit 1 μL of compound to be tested on their thorax using a pipette. It should be noted that the bees which received romifidine hydrochloride at a concentration of 10 μg/μL received 2 μL of product. The bees were unconscious for the time the compound to be tested was deposited, that is to say around three minutes, then they woke up.
After thoracic deposition of the compound to be tested, the 10 bees from the same box were transferred to a box containing the 10 Varroa mites (cf. “Preparation of Varroa mites” above). Liquid sugar was left in each of the boxes to feed the bees during the observations. The series of boxes was then placed in an oven at […] with a humidity of 50% in order to approximate hive conditions as closely as possible.
The mortality of Varroa mites and bees was then monitored 5 minutes, 2 hours, 4 hours and 24 hours after application of the compound to be tested to the bees. Dead Varroa mites correspond to Varroa mites detached from the bees. Dead bees correspond to bees which no longer move and which are often placed on their thorax.
The following compositions were applied to the thorax of the bees: • Solvent, • Amitraz at 1 μg/μL in acetone, • Clonidine hydrochloride at 100 μg/μL, 10 μg/μL, 1 μg/μL and 0.1 μg/μL in methanol, • Detomidine hydrochloride monohydrate at 1 μg/μL in methanol, • Dexmedetomidine hydrochloride at 100 μg/μL, 10 μg/μL, 1 μg/μL and 0.1 μg/μL in methanol, • Romifidine hydrochloride at 10 μg/μL and at 5 μg/μL in methanol, • Tizanidine hydrochloride at 1 μg/μL in methanol, • Medetomidine hydrochloride at 0.1 μg/μL in ethanol, • Levomedetomidine hydrochloride at 100 μg/μL, 10 μg/μL, 1 μg/μL and 0.1 μg/μL in methanol, • Octopamine at 1 μg/μL in ethanol. Results

[1] = adult ticks, 1 h, read-out: average percentage of adult tick mortality (moribund or dead adult ticks)
[2] = adult ticks, 3 h, read-out: average percentage of adult tick mortality (moribund or dead adult ticks)
[3] = adult ticks, 6 h, read-out: average percentage of adult tick mortality (moribund or dead adult ticks)
[4] = adult ticks, 12 h, read-out: average percentage of adult tick mortality (moribund or dead adult ticks)
[5] = adult ticks, 24 h, read-out: average percentage of adult tick mortality (moribund or dead adult ticks)
[6] = adult ticks, 48 h, read-out: average percentage of adult tick mortality (moribund or dead adult ticks)
[7] = adult ticks, 72 h, read-out: average percentage of adult tick mortality (moribund or dead adult ticks)
[8] = adult ticks, 96 h, read-out: average percentage of adult tick mortality (moribund or dead adult ticks)
[9] = nymphs, 1 h, read-out: average percentage of mortality of tick nymphs (moribund or dead nymphs)
[10] = nymphs, 3 h, read-out: average percentage of mortality of tick nymphs (moribund or dead nymphs)
[11] = nymphs, 6 h, read-out: average percentage of mortality of tick nymphs (moribund or dead nymphs)
[12] = nymphs, 12 h, read-out: average percentage of mortality of tick nymphs (moribund or dead nymphs)
[13] = nymphs, 24 h, read-out: average percentage of mortality of tick nymphs (moribund or dead nymphs)
[14] = nymphs, 48 h, read-out: average percentage of mortality of tick nymphs (moribund or dead nymphs)
[15] = nymphs, 72 h, read-out: average percentage of mortality of tick nymphs (moribund or dead nymphs)
[16] = nymphs, 96 h, read-out: average percentage of mortality of tick nymphs (moribund or dead nymphs)

Cc1cccc(C(C)c2cnc[nH]2)c1C (racemic) [Medetomidine hydrochloride]
effect in terms of tick detachment (in words) (Ixodes ricinus; 1, 10, 100 ppm, nymphs and adults): very limited effect | mortality at 1 ppm (Ixodes ricinus; [1]): 0% | mortality at 1 ppm (Ixodes ricinus; [2]): 0% | mortality at 1 ppm (Ixodes ricinus; [3]): 2.3% | mortality at 1 ppm (Ixodes ricinus; [4]): 7.3% | mortality at 1 ppm (Ixodes ricinus; [5]): 47.6% | mortality at 1 ppm (Ixodes ricinus; [6]): 97.7% | mortality at 1 ppm (Ixodes ricinus; [7]): 100% | mortality at 1 ppm (Ixodes ricinus; [8]): 100% | mortality at 10 ppm (Ixodes ricinus; [1]): 0% | mortality at 10 ppm (Ixodes ricinus; [2]): 0% | mortality at 10 ppm (Ixodes ricinus; [3]): 9.6% | mortality at 10 ppm (Ixodes ricinus; [4]): 9.6% | mortality at 10 ppm (Ixodes ricinus; [5]): 53.9% | mortality at 10 ppm (Ixodes ricinus; [6]): 91.2% | mortality at 10 ppm (Ixodes ricinus; [7]): 100% | mortality at 10 ppm (Ixodes ricinus; [8]): 100% | mortality at 100 ppm (Ixodes ricinus; [1]): 0% | mortality at 100 ppm (Ixodes ricinus; [2]): 0% | mortality at 100 ppm (Ixodes ricinus; [3]): 12.5% | mortality at 100 ppm (Ixodes ricinus; [4]): 18.1% | mortality at 100 ppm (Ixodes ricinus; [5]): 53.1% | mortality at 100 ppm (Ixodes ricinus; [6]): 84.7% | mortality at 100 ppm (Ixodes ricinus; [7]): 93.8% | mortality at 100 ppm (Ixodes ricinus; [8]): 100% | mortality at 1 ppm (Ixodes ricinus; [9]): 0% | mortality at 1 ppm (Ixodes ricinus; [10]): 0% | mortality at 1 ppm (Ixodes ricinus; [11]): 19.5% | mortality at 1 ppm (Ixodes ricinus; [12]): 38.9% | mortality at 1 ppm (Ixodes ricinus; [13]): 61.8% | mortality at 1 ppm (Ixodes ricinus; [14]): 93.9% | mortality at 1 ppm (Ixodes ricinus; [15]): 100% | mortality at 1 ppm (Ixodes ricinus; [16]): 100% | mortality at 10 ppm (Ixodes ricinus; [9]): 0% | mortality at 10 ppm (Ixodes ricinus; [10]): 10.4% | mortality at 10 ppm (Ixodes ricinus; [11]): 38.4% | mortality at 10 ppm (Ixodes ricinus; [12]): 58.5% | mortality at 10 ppm (Ixodes ricinus; [13]): 78.7% | mortality at 10 ppm (Ixodes ricinus; [14]): 85% | mortality at 10 ppm (Ixodes ricinus; [15]): 95.8% | mortality at 10 ppm (Ixodes ricinus; [16]): 100% | mortality at 100 ppm (Ixodes ricinus; [9]): 0% | mortality at 100 ppm (Ixodes ricinus; [10]): 9.1% | mortality at 100 ppm (Ixodes ricinus; [11]): 38.5% | mortality at 100 ppm (Ixodes ricinus; [12]): 69.2% | mortality at 100 ppm (Ixodes ricinus; [13]): 94.4% | mortality at 100 ppm (Ixodes ricinus; [14]): 100% | mortality at 100 ppm (Ixodes ricinus; [15]): 100% | mortality at 100 ppm (Ixodes ricinus; [16]): 100% | ticks affected (convulsion, morbidity or death of ticks) (Ixodes ricinus; from 1 hour of exposure, regardless of the concentration tested (1, 10, 100 ppm)): 100% | Varroacid effect (in words) (Varroa destructor): very effective
